Source: PubChem BioAssay AID1963839 (Molecular Pharmacology Branch, DTP, NCI, 2024)

System: 817829-284-R-J1-PDC complex spheroid viability
Experiment: Anticancer human tumor 817829-284-R-J1-PDC patient-derived colon adenocarcinoma cell line growth inhibition [POLQ]
Conditions: for IC50: curve of first compound; for viability, T/C: stronger effect = lower value
Procedure, shortened: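 Complex spheroid viability model combining PDC tumour cells with endothelial (HUVEC) and MSC stromal cells. Novobiocin, ART-558 or RP6685 were tested singly and in combination with standard and investigational anticancer drugs. Each was titrated in half-log steps from near clinical Cmax, or from 10 microM where Cmax was unknown.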

[1] = second compound 0.0316 µM, first compound 0.0316 µM
[2] = second compound 0.0316 µM, first compound 0.1 µM
[3] = second compound 0.0316 µM, first compound 0.316 µM
[4] = second compound 0.0316 µM, first compound 1 µM
[5] = second compound 0.0316 µM, first compound 3.16 µM
[6] = second compound 0.0316 µM, first compound 10 µM
[7] = second compound 0.1 µM, first compound 0.0316 µM
[8] = second compound 0.1 µM, first compound 0.1 µM
[9] = second compound 0.1 µM, first compound 0.316 µM
[10] = second compound 0.1 µM, first compound 1 µM
[11] = second compound 0.1 µM, first compound 3.16 µM
[12] = second compound 0.1 µM, first compound 10 µM
[13] = second compound 0.316 µM, first compound 0.0316 µM
[14] = second compound 0.316 µM, first compound 0.1 µM
[15] = second compound 0.316 µM, first compound 0.316 µM
[16] = second compound 0.316 µM, first compound 1 µM
[17] = second compound 0.316 µM, first compound 3.16 µM
[18] = second compound 0.316 µM, first compound 10 µM
[19] = second compound 1 µM, first compound 0.0316 µM
[20] = second compound 1 µM, first compound 0.1 µM
[21] = second compound 1 µM, first compound 0.316 µM
[22] = second compound 1 µM, first compound 1 µM
[23] = second compound 1 µM, first compound 3.16 µM
[24] = second compound 1 µM, first compound 10 µM
[25] = second compound 3.16 µM, first compound 0.0316 µM
[26] = second compound 3.16 µM, first compound 0.1 µM
[27] = second compound 3.16 µM, first compound 0.316 µM
[28] = second compound 3.16 µM, first compound 1 µM
[29] = second compound 3.16 µM, first compound 3.16 µM
[30] = second compound 3.16 µM, first compound 10 µM
[31] = second compound 10 µM, first compound 0.0316 µM
[32] = second compound 10 µM, first compound 0.1 µM
[33] = second compound 10 µM, first compound 0.316 µM
[34] = second compound 10 µM, first compound 1 µM
[35] = second compound 10 µM, first compound 3.16 µM
[36] = second compound 10 µM, first compound 10 µM
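Further: spheroids exposed to compounds for 7 days.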
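Wherever viability, T/C is given: 100% = DMSO vehicle-treated spheroids.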

CC1COCCN1c1cc(C2(O)CC3CCC(C2)O3)c2cnn(-c3ccn[nH]3)c2n1 (centres undefined) + Cc1cccc(N(C)C(=O)C2C(O)CCN2c2nc(C)cc(C(F)(F)F)c2C#N)c1
IC50 (second compound 0.0316 µM): < 0.0316 µM | IC50 (second compound 0.1 µM): < 0.0316 µM | IC50 (second compound 0.316 µM): < 0.0316 µM | IC50 (second compound 1 µM): < 0.0316 µM | IC50 (second compound 3.16 µM): < 0.0316 µM | IC50 (second compound 10 µM): < 0.0316 µM | viability, T/C [1]: 28.6% | viability, T/C [2]: 10.7% | viability, T/C [3]: 4.5% | viability, T/C [4]: 3.59% | viability, T/C [5]: 2.99% | viability, T/C [6]: 2.26% | viability, T/C [7]: 29.8% | viability, T/C [8]: 11.4% | viability, T/C [9]: 4.57% | viability, T/C [10]: 3.83% | viability, T/C [11]: 3.59% | viability, T/C [12]: 2.95% | viability, T/C [13]: 28.6% | viability, T/C [14]: 9.76% | viability, T/C [15]: 3.78% | viability, T/C [16]: 3.72% | viability, T/C [17]: 3.01% | viability, T/C [18]: 1.9% | viability, T/C [19]: 24.4% | viability, T/C [20]: 9.97% | viability, T/C [21]: 4.66% | viability, T/C [22]: 4.17% | viability, T/C [23]: 2.77% | viability, T/C [24]: 2.21% | viability, T/C [25]: 26.8% | viability, T/C [26]: 9.02% | viability, T/C [27]: 5.06% | viability, T/C [28]: 3.24% | viability, T/C [29]: 2.62% | viability, T/C [30]: 2.27% | viability, T/C [31]: 23% | viability, T/C [32]: 10.3% | viability, T/C [33]: 6.05% | viability, T/C [34]: 3.31% | viability, T/C [35]: 2.74% | viability, T/C [36]: 2.44%

CCc1cc2c(N3CCc4c(cc(Cn5ccnc5)cc4-c4cn(C)nc4C(F)(F)F)C3=O)ccnc2c(OC)n1 + Nc1ccc(C#CCN(C(=O)Cc2ncc(C(F)(F)F)cc2C(F)(F)F)c2ccc(F)cc2)nn1
IC50 (second compound 0.0316 µM): 2.59 µM | IC50 (second compound 0.1 µM): 2.41 µM | IC50 (second compound 0.316 µM): 2.61 µM | IC50 (second compound 1 µM): 2.33 µM | IC50 (second compound 3.16 µM): 3.44 µM | IC50 (second compound 10 µM): 2.63 µM | viability, T/C [1]: 84.2% | viability, T/C [2]: 77.9% | viability, T/C [3]: 84.1% | viability, T/C [4]: 76.3% | viability, T/C [5]: 44.5% | viability, T/C [6]: 29.7% | viability, T/C [7]: 83.7% | viability, T/C [8]: 82.7% | viability, T/C [9]: 78.2% | viability, T/C [10]: 67.9% | viability, T/C [11]: 44% | viability, T/C [12]: 37.5% | viability, T/C [13]: 86.3% | viability, T/C [14]: 74.6% | viability, T/C [15]: 64% | viability, T/C [16]: 64.8% | viability, T/C [17]: 49% | viability, T/C [18]: 34% | viability, T/C [19]: 83.6% | viability, T/C [20]: 70.5% | viability, T/C [21]: 74.8% | viability, T/C [22]: 60.7% | viability, T/C [23]: 44.8% | viability, T/C [24]: 31% | viability, T/C [25]: 97.5% | viability, T/C [26]: 95% | viability, T/C [27]: 72.7% | viability, T/C [28]: 68.8% | viability, T/C [29]: 52.1% | viability, T/C [30]: 33.9% | viability, T/C [31]: 83.8% | viability, T/C [32]: 84% | viability, T/C [33]: 69.7% | viability, T/C [34]: 67.3% | viability, T/C [35]: 45.5% | viability, T/C [36]: 31.4%
